Laboratory results taken from US5252463A, “Clipsin, a chymotrypsin-like protease and method of using same” (The Du Pont Merck Pharmaceutical Company, priority 1990, dated 1993).
Where two headings read alike, the source gives them in different places. Starred links: 1 amine or outer side, 2 acyl side, 3 side chain; linkers in the order of their positions; H or OH if unused. Residues, ends and D or L forms follow the SMILES beside them. *: point of attachment. pNA = O=[N+]([O-])c1ccc(N*)cc1; Suc = O=C(CCC(=O)[*:2])[*:1]; MeOSuc = COC(=O)CCC(=O)*

What was measured:
clipsin [1] = target: T1, clipsin (Rattus norvegicus, UniProt P09650); experiment: Enzymography: clipsin activity in 125I-gelatin-containing polyacrylamide gels; type: biochemical; set-up: Mr 25,000 band in gelatin enzymography; settings: for Inhibition of clipsin by peptide boronic acids (in words): 10 μM final concentrations
T1 sequence (P09650 21-260): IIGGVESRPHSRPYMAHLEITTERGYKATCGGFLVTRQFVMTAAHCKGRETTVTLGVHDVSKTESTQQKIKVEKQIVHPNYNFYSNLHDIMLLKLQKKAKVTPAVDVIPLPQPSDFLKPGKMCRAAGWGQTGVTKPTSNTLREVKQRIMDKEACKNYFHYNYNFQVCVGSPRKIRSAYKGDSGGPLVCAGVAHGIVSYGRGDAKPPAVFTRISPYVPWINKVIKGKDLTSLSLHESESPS

[2] = target: T2, human leukocyte cathepsin G (Homo sapiens, UniProt P08311); experiment: Hydrolysis kinetics of tetrapeptide p-nitroanilide substrates by cathepsin G; type: biochemical; settings: pH 7.5, 50° C.; for Km: 10% dimethyl sulfoxide; for kcat: α-1-AChy-titrated enzyme concentration
T2 sequence (P08311 21-244): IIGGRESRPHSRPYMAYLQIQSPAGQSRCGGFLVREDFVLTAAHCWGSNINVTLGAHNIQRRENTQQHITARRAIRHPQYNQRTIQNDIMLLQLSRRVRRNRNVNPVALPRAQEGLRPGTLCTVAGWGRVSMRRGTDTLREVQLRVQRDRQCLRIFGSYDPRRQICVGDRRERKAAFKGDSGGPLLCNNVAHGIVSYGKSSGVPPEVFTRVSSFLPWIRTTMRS
Text: (§1) Correlation coefficients were greater than 0.99.

bovine chymotrypsin [3] = target: T3, bovine chymotrypsin (Bos taurus, UniProt P00766); experiment: Hydrolysis kinetics of tetrapeptide p-nitroanilide substrates by chymotrypsin; type: biochemical; settings: ratio chymotrypsin/clipsin for the same substrate
T3 construct: mature chains cut from chymotrypsinogen A
Text: as §1

clipsin [4] = target: T1, clipsin; experiment: In vitro chromogenic substrate assay: inhibition of Suc-Ala-Ala-Pro-Phe-p-nitroanilide hydrolysis by Mg2+ extract; type: biochemical; set-up: Forebrains from 5-day-old rats were stripped of meninges and homogenized; from tissue; host or cells: forebrain of 5-day-old rats, membrane-associated, 1M MgCl2 extract (partially enriched); settings: for remaining activity at 10 µM: read-out: Relative Clipsin Activity (ΔOD as a percentage of the control value)
β-APP = β-APP degradation in rat cortical membranes by Mg2+ extract, Western blot with antiserum 385; type: biochemical; settings: inhibitor included in the incubation
Method: (§2) Mg^2+ extract at 60% (about 4.2 nM clipsin final) was incubated with a crude membrane fraction from adult rat cortex (2.8 mg/mL protein final; Siman et al., (1989) J. Neurosci. 9, 1579-1590). Proteolysis reactions were performed at 37° C. for 1 h before quenching the reactions with sodium dodecyl sulfate-containing electrophoresis sample buffer and heating the samples to 90° C. for 5 min. Overall breakdown of proteins were determined by Coomassie Blue staining of gels, whereas β-APP degradation was assessed by Western blotting of identical gels. β-APP was visualized as 110-130-kDa bands using antiserum 385 as described previously (Siman et al., (1989) Neuron 3, 275-285). β-APP-immunostained polypeptides on Western blots and the corresponding major Coomassie Blue-stained protein bands on sodium dodecyl sulfate-containing polyacrylamide gels were quantified by scanning laser densitometry.

[5] = tested on: major Coomassie Blue-detectable proteins from rat cortical membranes; experiment: Breakdown of rat cortical membrane proteins by Mg2+ extract, Coomassie Blue-stained gels; type: biochemical; settings: inhibitor included in the incubation
Method: as §2
We began looking for potential endogenous substrates of clipsin by incubating rat cortical membranes with Mg^2+ extract and measuring loss of the major protein bands following separation of the incubated samples by polyacrylamide gel electrophoresis. […] No other bands varied more than 25%, and no protease activity endogenous to cortical membranes could be detected when comparing 37° C. incubated membranes with parallel samples kept on ice.

[6] = tested on: T4, COC(=O)CCC(=O)N[C@@H](C)C(=O)N[C@@H](C)C(=O)N1CCC[C@H]1C(=O)N[C@@H](CCSC)C(=O)Nc1ccc([N+](=O)[O-])cc1; experiment: Hydrolysis kinetics of tetrapeptide p-nitroanilide substrates by chymotrypsin; type: biochemical, bovine; settings: other: chymotrypsin, pH 7.5, 50° C., 10% dimethyl sulfoxide
T4 construct: mature chains cut from chymotrypsinogen A
Text: as §1

[7] = tested on: T5, C[C@H](NC(=O)CCC(=O)O)C(=O)N[C@@H](C)C(=O)N1CCC[C@H]1C(=O)N[C@@H](Cc1ccccc1)C(=O)Nc1ccc([N+](=O)[O-])cc1; experiment: as above; type: biochemical, bovine; settings: other: chymotrypsin, pH 7.5, 50° C., 10% dimethyl sulfoxide
T5 construct: mature chains cut from chymotrypsinogen A
Text: as §1

human cathepsin G = settings: cited from earlier work
clipsin [8] = target: T1, clipsin; experiment: Titration of clipsin activity in Mg2+ extract with α-1-AChy in vitro; type: biochemical; set-up: Mr 25,000 band in gelatin enzymography; settings: 20% Mg2+ extract
clipsin [9] = target: T1, clipsin; experiment: Association rate constant for α-1-AChy binding to clipsin, second-order conditions; set-up: Mr 25,000 band in gelatin enzymography; settings: equimolar clipsin and α-1-AChy
Method: The association rate constant for α-1-AChy binding to clipsin was determined under second-order conditions as described previously for α-1-AChy binding to other chymotrypsin-like proteases (Beatty et al., (1980) J. Biol. Chem. 255, 3931-3934). Using the titrated concentration of clipsin, an equimolar concentration of α-1-AChy was preincubated with Mg^2+ extract for various periods of time before addition of 2 mM substrate which stopped the reaction and was used to measure residual enzyme activity. The half-life time of reaction (t1/2) was calculated from a plot of .nu.^-1 versus t, and in turn used to calculate the association rate constant ^k assoc through the following: kassoc =1/t1/2 [Eγ], where [Eγ] stands for the total enzyme concentration (Beatty et al., (1980) J. Biol. Chem. 255, 3931-3934).
Using the titrated value for clipsin concentration in the Mg^2+ extract, we combined equimolar concentrations of clipsin and α-1-AChy to determine the association rate constant between these two proteins, as described previously (Equation 4 in Beatty et al., (1980) J. Biol. Chem. 255, 3931-3934). The ^k assoc was determined to be 2.9×10^6 M^-1 s^-1, a value falling between those determined previously for chymotrypsin and cathepsin G (Beatty et al., (1980) J. Biol. Chem. 255, 3931-3934).

bovine chymotrypsin [10] = target: T3, bovine chymotrypsin; settings: cited from earlier work
[11] = inhibitor 10 μM, 20% Mg2+ extract (1.4 nM clipsin), 2 mM Suc-Ala-Ala-Pro-Phe-p-nitroanilide, 1 h, 37° C., average of three

## c1cnc2c(c1)ccc1cccnc12 [1,10-0-phenanthroline]
Clipsin [1]; enzymography, 1 mM EDTA present
  Inhibition of clipsin activity by class-specific protease inhibitors (in words): Lack of complete inhibition

## CCN1C(=O)C=CC1=O [N-ethylmaleimide]
Clipsin [1]
  Inhibition of clipsin activity by class-specific protease inhibitors (in words): not inhibited

## COC(=O)CCC(=O)N[C@@H](C)C(=O)N[C@@H](C)C(=O)N1CCC[C@H]1C(=O)N[C@@H](CCSC)C(=O)Nc1ccc([N+](=O)[O-])cc1 [R'--Met-p-nitroanilide] (MeOSuc-AAPM-pNA)
[2]
  kcat /Km: 4,300 M^-1 S^-1
  Km: 540 µM
  kcat: 2.3 s⁻¹
Bovine chymotrypsin [3]
  kcat /Km of chymotrypsin relative to clipsin: 8.5 fold

## C[C@H](NC(=O)CCC(=O)O)C(=O)N[C@@H](C)C(=O)N1CCC[C@H]1C(=O)N[C@@H](Cc1ccccc1)C(=O)Nc1ccc([N+](=O)[O-])cc1 [R--Phe-p-nitroanilide, Suc-Ala-Ala-Pro-Phe-p-nitroanilide] (Suc-AAPF-pNA)
[2]
  kcat /Km: 4,800 M^-1 S^-1
  Km: 3300 µM
  kcat: 16 s⁻¹
Bovine chymotrypsin [3]
  kcat /Km of chymotrypsin relative to clipsin: 16 fold

## COC(=O)CCC(=O)N[C@@H](C)C(=O)N[C@@H](C)C(=O)N1CCC[C@H]1C(=O)N[C@@H](Cc1ccccc1)B(O)O [Sample 2, MeO-Suc-Ala-Ala-Pro-boro-Phe-OH]
Clipsin [1]; enzymography
  Inhibition of clipsin by peptide boronic acids (in words): preferentially inhibited
Clipsin [4]; [11]
  remaining activity at 10 µM: 8%
β-APP
  Blocking of the clipsin-induced loss of β-APP immunoreactivity (in words): specifically blocked
[5]
  Blocking of the clipsin-induced decrease of the protein doublet (in words): could be blocked

## COC(=O)CCC(=O)N[C@@H](C)C(=O)N[C@@H](C)C(=O)N1CCC[C@H]1C(=O)N[C@@H](C)B(O)O [Sample 3, MeO-Suc-Ala-Ala-Pro-boro-Ala-OH]
Clipsin [1]; enzymography
  Inhibition of clipsin by peptide boronic acids (in words): lack of inhibition
Clipsin [4]; [11]
  remaining activity at 10 µM: 97%

## COC(=O)CCC(=O)N[C@@H](C)C(=O)N[C@@H](C)C(=O)N1CCC[C@H]1C(=O)N[C@H](B(O)O)C(C)C [Sample 4, MeO-Suc-Ala-Ala-Pro-boro-Val-OH]
Clipsin [1]; enzymography
  Inhibition of clipsin by peptide boronic acids (in words): lack of inhibition
Clipsin [4]; [11]
  remaining activity at 10 µM: 94%

## O=C(O)CI [iodoacetic acid]
Clipsin [1]
  Inhibition of clipsin activity by class-specific protease inhibitors (in words): not inhibited

## O=S(=O)(F)Cc1ccccc1 [phenylmethylsulfonyl fluoride]
Clipsin [1]
  Inhibition of clipsin activity by class-specific protease inhibitors (in words): inhibited clipsin activity

## Bz-Pro-Phe-boro-Arg-OH [Sample 5]
Clipsin [1]; enzymography
  Inhibition of clipsin by peptide boronic acids (in words): only marginally
Clipsin [4]; [11]
  Relative Clipsin Activity (ΔOD as a percentage of the control value): 84%

## bovine chymotrypsin (Bos taurus)
[6]
  Km: 1800 µM
  kcat: 80 s⁻¹
  kcat/Km: 44,000 M^-1 S^-1
[7]
  Km: 130 µM
  kcat: 120 s⁻¹
  kcat/Km: 910,000 M^-1 S^-1

B1: α-1-antichymotrypsin (protein, UniProt P01011 24-423, looked up)
Alpha-1-antichymotrypsin: HPNSPLDEENLTQENQDRGTHVDLGLASANVDFAFSLYKQLVLKAPDKNVIFSPLSISTALAFLSLGAHNTTLTEILKGLKFNLTETSEAEIHQSFQHLLRTLNQSSDELQLSMGNAMFVKEQLSLLDRFTEDAKRLYGSEAFATDFQDSAAAKKLINDYVKNGTRGKITDLIKDLDSQTMMVLVNYIFFKAKWEMPFDPQDTHQSRFYLSKKKWVMVPMMSLHHLTIPYFRDEELSCTVVELKYTGNASALFILPDQDKMEEVEAMLLPETLKRWRDSLEFREIGELYLPKFSISRDYNLNDILLQLGIEEAFTSKADLSGITGARNLAVSQVVHKAVLDVFEEGTEASAATAVKITLLSALVETRTIVRFNRPFLMIIVPTDTQNIFFMSKVTNPKQA
Human cathepsin G
  kassoc reported for α-1-AChy binding to human cathepsin G: 5.1e+07 M⁻¹ s⁻¹
Clipsin [4]; pilot experiments, […]
  Inhibition of clipsin activity in vitro (in words): effective inhibitor
Clipsin [8]
  α-1-AChy concentration producing rapid inhibition of clipsin activity: ≥ 3.5 nM
Clipsin [8]; titration curve at 120 min preincubation
  α-1-AChy necessary to inhibit 100% clipsin activity (titration point): 1.4 nM
Clipsin [9]
  kassoc, association rate constant of α-1-AChy with clipsin: 2.9e+06 M⁻¹ s⁻¹
Bovine chymotrypsin [10]
  kassoc reported for α-1-AChy binding to bovine chymotrypsin: 60000 M⁻¹ s⁻¹
